The results in this text go back to patent publication US7939341B2, “Membrane arrays and methods of manufacture” (Corning Incorporated, priority 2004, dated 2011).

In this assay the target is motilin receptor (Motilin) (Homo sapiens, UniProt O43193). The experiment in a line: GPCR array functional assay (Eu-GTP binding) on GAPS coated porous slide, Motilin receptor. In kind it is biochemical. Particulars: agonist at 1 μM, 10 nM Eu-GTP, 3 μM GDP, 1 hour incubation, time-resolved fluorescence.
Sequence of motilin receptor (Motilin) (O43193 whole entry, species assumed): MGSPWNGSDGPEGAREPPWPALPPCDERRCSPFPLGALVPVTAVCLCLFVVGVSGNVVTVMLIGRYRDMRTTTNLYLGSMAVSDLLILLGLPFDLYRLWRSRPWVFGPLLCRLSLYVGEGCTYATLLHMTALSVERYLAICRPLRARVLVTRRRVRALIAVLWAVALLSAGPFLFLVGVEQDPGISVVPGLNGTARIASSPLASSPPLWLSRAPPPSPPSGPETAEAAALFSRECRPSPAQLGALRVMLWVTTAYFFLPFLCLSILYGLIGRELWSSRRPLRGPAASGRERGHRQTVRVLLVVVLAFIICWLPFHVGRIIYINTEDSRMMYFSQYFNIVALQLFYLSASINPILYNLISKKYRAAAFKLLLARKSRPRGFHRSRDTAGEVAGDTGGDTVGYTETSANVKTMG

Experimental: 2) Assays performing—the printed GPCR arrays are then incubated with assay buffers containing GTP analogue probes in the presence or absence of receptor agonist for certain time (e.g., 45 minutes), and at the end of incubation period the assay solutions are removed, the slides are rinsed with GTP wash buffer and dried with nitrogen;
3) Imaging—when Eu-GTP is used as a probe, the slides are then directly scanned using a time-resolved fluorescence imaging system; and, if biotin-GTPγS is used as a probe, an extra incubation step is often performed before imaging. For example, the array is then further incubated with Gold particles labeled streptavadin in order to detect bounded biotin-GTPγS, resonance light scattering imaging system is then used.
The EuGTP assay buffer contained 10 nM Eu-GTP, 50 mM HEPES buffer, pH 7.4, 3 μM GDP, 10 mM MgCl2, 100 mM NaCl, and 0.1% protein blocker. At the end of the incubation, the assay buffers were removed. Afterwards, slides were washed, dried and imaged with in-house developed time-resolved fluorescence imaging system.

As for `CC[C@H](C)[C@H](NC(=O)[C@@H]1CCCN1C(=O)[C@@H](NC(=O)[C@@H](N)Cc1ccccc1)C(C)C)C(=O)N[C@@H](Cc1ccccc1)C(=O)N[C@H](C(=O)N[C@@H](Cc1ccc(O)cc1)C(=O)NCC(=O)N[C@@H](CCC(=O)O)C(=O)N[C@@H](CC(C)C)C(=O)N[C@@H](CCC(N)=O)C(=O)N[C@@H](CCCNC(=N)N)C(=O)N[C@@H](CCSC)C(=O)N[C@@H](CCC(N)=O)C(=O)N[C@@H](CCC(=O)O)C(=O)N[C@@H](CCCCN)C(=O)N[C@@H](CCC(=O)O)C(=O)N[C@@H](CCCNC(=N)N)C(=O)N[C@@H](CC(N)=O)C(=O)N[C@@H](CCCCN)C(=O)NCC(=O)N[C@@H](CCC(N)=O)C(=O)O)[C@@H](C)O` [motilin], the “binding of EuGTP to the GPCR microspots (receptor activation by agonist)” value is reported as “increase the binding of EuGTP”.
